Format in all cases: physicochemical
A short description of data set [1]: Gelation test: gelator effectiveness (Geff) and minimal gelation concentration in solvents and solvent mixtures.
Assay in data set [2]: as above
Details: key: sol.: soluble; ins.: insoluble; cr.: crystalline; [A]: gel/sol mixture. The following applies: max. volume immobilized by 10 mg gelator, Table 3. The procedure:
(§1) Gelation observed for selected gelator–solvent pairs is expressed by gelator effectiveness (Geff, mL) corresponding to the maximal volume of solvent that could be immobilized by 10 mg of the gelator (Table 1). […] However, 3a and 5a also gelled small to moderate volumes of EtOH and rac-2-octanol, whilst Leu incorporating 1a formed gels with the more lipophilic solvents, decalin and tetralin. […] Apparently, the retro-peptides incorporating aliphatic and aromatic amino acids are less versatile gelators compared to retro-peptides containing […] amino acid fragments. The latter points to the importance of intermolecular lipophilic interactions for the stabilization of gel assemblies being stronger in the case of identical amino acids either lipophilic or aromatic, and weaker for mixed aromatic-lipophilic amino acid fragments present in the gelator molecule.

Assay in data set [3]: as above
The following applies: max. volume immobilized by 10 mg gelator, Table 3. Also on record: key: sol.: soluble; ins.: insoluble; cr.: crystallization; [A]: gel/sol mixture. The procedure:
as §1

Assay in data set [4]: as above
The following applies: for Gelation effectiveness (Geff): Table 3. Details: key to Gelator effectiveness (Geff): sol.: soluble; ins.: insoluble; cr.: crystallization; [A]: gel/sol mixture. Here is the method: as §1

Data set [5] is described as follows: Concentration-dependent 1H NMR of toluene-d8 gel samples (self-assembly saturation point). An excerpt:
In the first case the oxalamide NH and Leu-NH protons were downfield shifted by 1.6 and 1.8 ppm, respectively, for a gelator concentration increase from 0.001–0.1 mol dm^−3. […] The monitored protons of (S,S)-1b are more strongly downfield shifted than the corresponding protons of (S,R)-1b for the same concentration range. Similar trends of NH and C*H concentration induced shifts are observed for (S,S)-1b and its racemate (S,S)-1b/(R,R)-1b toluene-d8 gels (Figure 6). Again the magnitudes of the NH and C*H concentration induced shifts are higher for the (S,S)-1b than for the racemate gel. […]
If the racemate were organized in the conglomerate as separate enantiomeric (S,S)-1b and (R,R)-1b assemblies, the magnitudes of the concentration induced shifts should be similar to those measured the for (S,S)-1b assemblies. […]
The discontinuous concentration induced shift curves obtained for (S,R)-1b diasteroisomer may indicate the presence of different assemblies at lower and higher gelator concentrations. It appears that the first saturation point is reached at a concentration around 0.03 mol dm^-3 and the second at 0.12 mol dm^−3, the latter corresponding nicely to the experimentally determined MGC of 0.116 mol dm^−3. […]

[6] abbreviates: max. volume immobilized by 10 mg gelator, CH2Cl2, Table 2.
[7] abbreviates: max. volume immobilized by 10 mg gelator, CH3CN, Table 2.
The mark [8] stands for this setting: max. volume immobilized by 10 mg gelator, H2O/DMF mixture, given as volume + volume, Table 2.
Setting [9] is: max. volume immobilized by 10 mg gelator, H2O/DMSO mixture, given as volume + volume, Table 2.
Setting [10] is: max. volume immobilized by 10 mg gelator, H2O, Table 2.
[11] abbreviates: max. volume immobilized by 10 mg gelator, THF, Table 2.
[12] abbreviates: max. volume immobilized by 10 mg gelator, decalin, Table 2.
[13] abbreviates: max. volume immobilized by 10 mg gelator, p-xylene, Table 2.
Setting [14] is: max. volume immobilized by 10 mg gelator, tetralin, Table 2.
The mark [15] stands for this setting: max. volume immobilized by 10 mg gelator, toluene, Table 2.
[16] abbreviates: max. volume immobilized by 10 mg gelator, H2O/DMF mixture, given as volume + volume.
[17] abbreviates: max. volume immobilized by 10 mg gelator, H2O/DMSO mixture, given as volume + volume.
The mark [18] stands for this setting: max. volume immobilized by 10 mg gelator, tetralin.

Data on 8 compounds can be found in paper PMC2981816, “Oxalyl retro-peptide gelators. Synthesis, gelation properties and stereochemical effects” (Beilstein Journal of Organic Chemistry, 2010).

In the case of `O=C(N[C@H](C(=O)N[C@H](C(=O)O)c1ccccc1)c1ccccc1)C(=O)N[C@H](C(=O)N[C@H](C(=O)O)c1ccccc1)c1ccccc1` [3a, (S,S)-N,N'-Oxalyl-bis(phenylglycyl-phenylglycine)], the solubility in water result in data set [1] is listed as “insoluble”.
For `NC(=O)[C@@H](NC(=O)[C@@H](NC(=O)C(=O)N[C@H](C(=O)N[C@H](C(N)=O)c1ccccc1)c1ccccc1)c1ccccc1)c1ccccc1` [3c, bis(PhgPhgNH2)], the “Gelation effectiveness (Geff)” value in data set [2] (H2O/DMF mixture, given as volume + volume) is on record as “cr”; in data set [2] (H2O/DMSO mixture, given as volume + volume), “cr”; in data set [3] (CH2Cl2) it was “ins”; in data set [3] (CH3CN), “ins”; in data set [3] (EtOH), “ins”; in data set [3] (H2O) it was “ins”. The “Gelation effectiveness (Geff)” value in data set [3] (THF), in data set [3] (p-xylene), in data set [3] (tetralin), in data set [3] (toluene) and in data set [3] (±2-octanol) was “ins” in each case.
Consider `COC(=O)[C@H](CC(C)C)NC(=O)[C@@H](NC(=O)C(=O)N[C@H](C(=O)N[C@@H](CC(C)C)C(=O)OC)c1ccccc1)c1ccccc1` [4b, (S,S)-N,N'-Oxalyl-bis(phenylglycyl-leucine methyl ester)], for which the “Gelator effectiveness (Geff)” value in data set [4] (setting [6]) is “sol”; in data set [4] (setting [7]) it was “cr”; in data set [4] (setting [8]) it was “cr”; in data set [4] (setting [9]), 0.2+0.5 mL; in data set [4] (setting [10]), “ins”; in data set [4] (setting [11]) it was “sol”. The “Gelator effectiveness (Geff)” value in data set [4] (setting [12]) is on record as 4.8 mL; in data set [4] (setting [13]), 1.1 mL; in data set [4] (setting [14]), 0.9 mL; in data set [4] (setting [15]) it was 1.25 mL.
For `O=C(N[C@@H](Cc1ccccc1)C(=O)N[C@@H](Cc1ccccc1)C(=O)O)C(=O)N[C@@H](Cc1ccccc1)C(=O)N[C@@H](Cc1ccccc1)C(=O)O` [5a, (S,S)-N,N'-Oxalyl-bis(phenylalanyl-phenylalanine)], the solubility in water result in data set [1] is reported as “insoluble”.
Turning to `NC(=O)[C@H](Cc1ccccc1)NC(=O)[C@H](Cc1ccccc1)NC(=O)C(=O)N[C@@H](Cc1ccccc1)C(=O)N[C@@H](Cc1ccccc1)C(N)=O` [5c, bis(PhePheNH2)], the “Gelation effectiveness (Geff)” value in data set [4] (setting [16]) was 2.7+3.0 mL; in data set [4] (setting [17]), 1.3+1.6 mL; in data set [4] (setting [18]), 2.0 mL; in data set [3] (CH2Cl2), “ins”; in data set [3] (CH3CN), “ins”; in data set [3] (EtOH) it was “ins”. Also, the “Gelation effectiveness (Geff)” value in data set [3] (H2O), in data set [3] (THF), in data set [3] (p-xylene), in data set [3] (toluene) and in data set [3] (±2-octanol) was “ins” throughout.
For `CC(C)C[C@H](NC(=O)[C@H](CC(C)C)NC(=O)C(=O)N[C@@H](CC(C)C)C(=O)N[C@@H](CC(C)C)C(N)=O)C(N)=O` [(S,S)-1c, bis(LeuLeuNH2)], the “Gelation effectiveness (Geff)” value in data set [4] (max. volume immobilized by 10 mg gelator, CH2Cl2 + DMSO (footnote a), volume + volume) was 1.05+0.2^a mL; in data set [4] (setting [16]) it was 0.45+0.75 mL; in data set [4] (setting [17]) it was 0.55+1.4 mL; in data set [4] (setting [18]), 7.3 mL; in data set [4] (max. volume immobilized by 10 mg gelator, toluene + DMSO (footnote a), volume + volume), 1.05+0.2^a mL; in data set [2] (EtOH), “cr”. In addition, the “Gelation effectiveness (Geff)” value in data set [3] (CH3CN), in data set [3] (H2O), in data set [3] (THF), in data set [3] (p-xylene) and in data set [3] (±2-octanol) was “ins” throughout.
Consider “(S,R)-N,N'-Oxalyl-bis(leucyl-leucine methyl ester) [(S,R)-1b]”, for which the “Gelator effectiveness (Geff)” value in data set [4] (setting [6]) is listed as “sol”; in data set [4] (setting [7]) it was “cr”; in data set [4] (max. volume immobilized by 10 mg gelator, EtOH, Table 2), “cr”; in data set [4] (setting [8]), 11.5+11.7 mL; in data set [4] (setting [9]), 9.7+10.0 mL; in data set [4] (setting [10]), “ins”. In addition, the “Gelator effectiveness (Geff)” value in data set [4] (setting [11]) is reported as “cr”; in data set [4] (setting [12]), 0.8 mL; in data set [4] (setting [13]) it was 0.5 mL; in data set [4] (setting [14]), 0.2 mL; in data set [4] (setting [15]), 0.15 mL; in data set [4] (max. volume immobilized by 10 mg gelator, ±2-octanol, Table 2), “cr”. In data set [4] (toluene, experimentally determined), the “minimal gelation concentration (MGC)” value amounted to 0.116 mol dm^−3. The “second saturation point of concentration induced 1H NMR shifts” value in data set [5] (toluene-d8) was found to be 0.12 mol dm^−3. Besides, in data set [5] (toluene-d8, concentration range 0.001–0.1 mol dm^−3, first or only saturation point), the “saturation point of concentration induced 1H NMR shifts (self-assembly equilibrium)” value is recorded as “around 0.03 mol dm^−3”.
Turning to bis(Leu)oxalamide [reference compound], the “Gelator effectiveness (Geff)” value is 1.5+0.05^a mL in data set [4] (max. volume immobilized by 10 mg gelator, CH2Cl2 + DMSO (footnote a), given as volume + volume, Table 1); 0.95 mL in data set [4] (max. volume immobilized by 10 mg gelator, CH3CN, Table 1); 1.5 mL in data set [4] (max. volume immobilized by 10 mg gelator, EtOH, Table 1); “cr” in data set [4] (max. volume immobilized by 10 mg gelator, H2O/DMF mixture, given as volume + volume, Table 1); 0.8+0.4 mL in data set [4] (max. volume immobilized by 10 mg gelator, H2O/DMSO mixture, given as volume + volume, Table 1); 0.4 mL in data set [4] (max. volume immobilized by 10 mg gelator, THF, Table 1). Besides, the “Gelator effectiveness (Geff)” value in data set [4] (max. volume immobilized by 10 mg gelator, decalin, Table 1) is 0.2 mL; in data set [4] (max. volume immobilized by 10 mg gelator, p-xylene, Table 1) it was 2.45 mL; in data set [4] (max. volume immobilized by 10 mg gelator, tetralin, Table 1), 3.0 mL; in data set [4] (max. volume immobilized by 10 mg gelator, toluene, Table 1) it was 1.95 mL; in data set [4] (max. volume immobilized by 10 mg gelator, ±2-octanol, Table 1), 10.95 mL; in data set [4] (maximal volume of solvent immobilized by 10 mg of gelator, solvent H2O, Table 1) it was 0.4 mL.
